Assay results from PMC7156458, “Synthetic biology based construction of biological activity-related library of fungal decalin-containing diterpenoid pyrones” (Nature Communications, 2020).

Molecular target: Aβ42 (Homo sapiens, UniProt P05067)
Assay: Th-T (thioflavin-T) assay of Aβ42 aggregation
Assay type: biochemical
Settings: for Th-T fluorescence, mean of three wells: compound at 50

Sequence of Aβ42 (P05067 672-713): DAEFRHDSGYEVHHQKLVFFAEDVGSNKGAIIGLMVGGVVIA

C=C1CCC2C(C)(CCC=C(C)C)C(O)CCC2(C)C1Cc1c(OC)oc(CO)c(C)c1=O (stereo not drawn) [Compound 12]
Th-T fluorescence, mean of three wells (reading M54 of time course): 1.475 | Th-T fluorescence, mean of three wells (reading M55 of time course): 1.456 | Th-T fluorescence, mean of three wells (reading M56 of time course): 1.467 | Th-T fluorescence, mean of three wells (reading M57 of time course): 1.475 | Th-T fluorescence, mean of three wells (reading M58 of time course): 1.462 | Th-T fluorescence, mean of three wells (reading M59 of time course): 1.454 | Th-T fluorescence, mean of three wells (reading M60 of time course): 1.444 | Th-T fluorescence, mean of three wells (reading M61 of time course): 1.462 | Th-T fluorescence, mean of three wells (reading M62 of time course): 1.445 | Th-T fluorescence of Aβ42 with compound, mean of three wells (Fig. 7a source data) (concentration 10, unit not given, time-course reading M129): 2.41 | Th-T fluorescence of Aβ42 with compound, mean of three wells (Fig. 7a source data) (concentration 10, unit not given, time-course reading M130): 2.392 | Th-T fluorescence of Aβ42 with compound, mean of three wells (Fig. 7a source data) (concentration 10, unit not given, time-course reading M131): 2.376 | Th-T fluorescence of Aβ42 with compound, mean of three wells (Fig. 7a source data) (concentration 10, unit not given, time-course reading M132): 2.3677 | Th-T fluorescence of Aβ42 with compound, mean of three wells (Fig. 7a source data) (concentration 10, unit not given, time-course reading M133): 2.357 | Th-T fluorescence of Aβ42 with compound, mean of three wells (Fig. 7a source data) (concentration 10, unit not given, time-course reading M134): 2.346 | Th-T fluorescence of Aβ42 with compound, mean of three wells (Fig. 7a source data) (concentration 10, unit not given, time-course reading M135): 2.32 | Th-T fluorescence of Aβ42 with compound, mean of three wells (Fig. 7a source data) (concentration 10, unit not given, time-course reading M136): 2.323 | Th-T fluorescence of Aβ42 with compound, mean of three wells (Fig. 7a source data) (concentration 10, unit not given, time-course reading M137): 2.294 | Th-T fluorescence of Aβ42 with compound, mean of three wells (Fig. 7a source data) (concentration 10, unit not given, time-course reading M138): 2.29 | Th-T fluorescence of Aβ42 with compound, mean of three wells (Fig. 7a source data) (concentration 10, unit not given, time-course reading M139): 2.265 | Th-T fluorescence of Aβ42 with compound, mean of three wells (Fig. 7a source data) (concentration 10, unit not given, time-course reading M140): 2.265 | Th-T fluorescence of Aβ42 with compound, mean of three wells (Fig. 7a source data) (concentration 10, unit not given, time-course reading M141): 2.2429 | Th-T fluorescence of Aβ42 with compound, mean of three wells (Fig. 7a source data) (concentration 10, unit not given, time-course reading M142): 2.235 | Th-T fluorescence of Aβ42 with compound, mean of three wells (Fig. 7a source data) (concentration 10, unit not given, time-course reading M143): 2.219 | Th-T fluorescence of Aβ42 with compound, mean of three wells (Fig. 7a source data) (concentration 10, unit not given, time-course reading M144): 2.211 | Th-T fluorescence of Aβ42 with compound, mean of three wells (Fig. 7a source data) (concentration 10, unit not given, time-course reading M145): 2.191 | Th-T fluorescence of Aβ42 with compound, mean of three wells (Fig. 7a source data) (concentration 20, unit not given, time-course reading M129): 2.166 | Th-T fluorescence of Aβ42 with compound, mean of three wells (Fig. 7a source data) (concentration 20, unit not given, time-course reading M130): 2.19 | Th-T fluorescence of Aβ42 with compound, mean of three wells (Fig. 7a source data) (concentration 20, unit not given, time-course reading M131): 2.201 | Th-T fluorescence of Aβ42 with compound, mean of three wells (Fig. 7a source data) (concentration 20, unit not given, time-course reading M132): 2.206 | Th-T fluorescence of Aβ42 with compound, mean of three wells (Fig. 7a source data) (concentration 20, unit not given, time-course reading M133): 2.24 | Th-T fluorescence of Aβ42 with compound, mean of three wells (Fig. 7a source data) (concentration 20, unit not given, time-course reading M134): 2.215 | Th-T fluorescence of Aβ42 with compound, mean of three wells (Fig. 7a source data) (concentration 20, unit not given, time-course reading M135): 2.232 | Th-T fluorescence of Aβ42 with compound, mean of three wells (Fig. 7a source data) (concentration 20, unit not given, time-course reading M136): 2.218 | Th-T fluorescence of Aβ42 with compound, mean of three wells (Fig. 7a source data) (concentration 20, unit not given, time-course reading M137): 2.204 | Th-T fluorescence of Aβ42 with compound, mean of three wells (Fig. 7a source data) (concentration 20, unit not given, time-course reading M138): 2.229 | Th-T fluorescence of Aβ42 with compound, mean of three wells (Fig. 7a source data) (concentration 20, unit not given, time-course reading M139): 2.207 | Th-T fluorescence of Aβ42 with compound, mean of three wells (Fig. 7a source data) (concentration 20, unit not given, time-course reading M140): 2.233 | Th-T fluorescence of Aβ42 with compound, mean of three wells (Fig. 7a source data) (concentration 20, unit not given, time-course reading M141): 2.207 | Th-T fluorescence of Aβ42 with compound, mean of three wells (Fig. 7a source data) (concentration 20, unit not given, time-course reading M142): 2.239 | Th-T fluorescence of Aβ42 with compound, mean of three wells (Fig. 7a source data) (concentration 20, unit not given, time-course reading M143): 2.219 | Th-T fluorescence of Aβ42 with compound, mean of three wells (Fig. 7a source data) (concentration 20, unit not given, time-course reading M144): 2.234 | Th-T fluorescence of Aβ42 with compound, mean of three wells (Fig. 7a source data) (concentration 20, unit not given, time-course reading M145): 2.206 | Th-T fluorescence of Aβ42 with compound, mean of three wells (Fig. 7a source data) (concentration 50, unit not given, time-course reading M129): 1.589 | Th-T fluorescence of Aβ42 with compound, mean of three wells (Fig. 7a source data) (concentration 50, unit not given, time-course reading M130): 1.591 | Th-T fluorescence of Aβ42 with compound, mean of three wells (Fig. 7a source data) (concentration 50, unit not given, time-course reading M131): 1.579 | Th-T fluorescence of Aβ42 with compound, mean of three wells (Fig. 7a source data) (concentration 50, unit not given, time-course reading M132): 1.5892 | Th-T fluorescence of Aβ42 with compound, mean of three wells (Fig. 7a source data) (concentration 50, unit not given, time-course reading M133): 1.602 | Th-T fluorescence of Aβ42 with compound, mean of three wells (Fig. 7a source data) (concentration 50, unit not given, time-course reading M134): 1.607 | Th-T fluorescence of Aβ42 with compound, mean of three wells (Fig. 7a source data) (concentration 50, unit not given, time-course reading M135): 1.608 | Th-T fluorescence of Aβ42 with compound, mean of three wells (Fig. 7a source data) (concentration 50, unit not given, time-course reading M136): 1.609 | Th-T fluorescence of Aβ42 with compound, mean of three wells (Fig. 7a source data) (concentration 50, unit not given, time-course reading M137): 1.626 | Th-T fluorescence of Aβ42 with compound, mean of three wells (Fig. 7a source data) (concentration 50, unit not given, time-course reading M138): 1.633 | Th-T fluorescence of Aβ42 with compound, mean of three wells (Fig. 7a source data) (concentration 50, unit not given, time-course reading M139): 1.6439 | Th-T fluorescence of Aβ42 with compound, mean of three wells (Fig. 7a source data) (concentration 50, unit not given, time-course reading M140): 1.64 | Th-T fluorescence of Aβ42 with compound, mean of three wells (Fig. 7a source data) (concentration 50, unit not given, time-course reading M141): 1.647 | Th-T fluorescence of Aβ42 with compound, mean of three wells (Fig. 7a source data) (concentration 50, unit not given, time-course reading M142): 1.661
